Literature values as cited in patent US5434330A, “Process and apparatus for separation of constituents of gases using gas hydrates” (priority 1993, dated 1995).
Where two headings read alike, the source gives them in different places.

Legend:
[1] = 25° C.
[2] = in ethyl ether, 20° C.
[3] = for calculation at 253K

nitrogen-methanol Henry's law constant ([3]; in methanol)	nitrogen-water Henry's law constant ([3]; in water)	Compound	SOLUBILITY OF METHANE, HENRY'S CONSTANT H ([1]; in Acetone) [atm]	SOLUBILITY OF METHANE, HENRY'S CONSTANT H ([1]; in Ethanol) [atm]	SOLUBILITY OF METHANE, HENRY'S CONSTANT H ([1]; in Methanol) [atm]	SOLUBILITY OF METHANE, HENRY'S CONSTANT H ([1]; in Water)	Ostwald coefficient [2]	methane-methanol Henry's law constant ([3]; in methanol) [atm]	methane-water Henry's law constant ([3]; in water)
–	–	C [methane]	533	770	1137	39,052 atm	1028	824	10,193 atm
3,632 atm	27,987 atm	N#N [nitrogen]	–	–	–	–	–	–	–
